For test [1], the system named is HT29 cells. The test can be described thus: CyQuant cell proliferation activity test in HT29 cells. As to conditions: Homo sapiens, HT-29, 72 h, 2000 cells per well, 3 days incubation, IC50 by XLFIT, read-out: HT29_IC50_nM. Format: cell-based. On the procedure: HT29 cells were purchased from Nanjing Cobioer Biosciences Co., Ltd.; RPMI-1640 medium, fetal bovine serum, Trypsin-EDTA (0.25%), 96-well plates, and CyQuant reagents were purchased from ThermoFisher (USA); DMSO was purchased from SIGMA (USA).
Culture HT29 cells with RPMI-1640 containing 10% fetal bovine serum under the condition of 37° C. and 5% CO2. Only cells in the logarithmic growth phase can be used for the test.
Use the CyQuant reagent to detect the proliferation inhibitory activity of compounds on HT29 cells. Adjust the cell density and inoculate 100 μL per well into the 96-well plate (HT29 at 2000 cells per well), then incubate overnight under the condition of 37° C. and 5% CO2. Add compounds of various target concentrations (initial concentration of 3000 nM, 3-fold dilution, 9 concentration gradients), and make the DMSO content 0.2%. Incubate the cell plates at 37° C. and 5% CO2 for 3 days. Incubate with CyQuant reagent for 1 h, read the plate by Envision, and calculate IC50 using XLFIT.

The subject of test [2] is OVCAR3 cells. The test can be described thus: Cell proliferation activity test in OVCAR3 cells (CyQUANT Direct). The test is classed as cell-based. As to conditions: Homo sapiens, OVCAR-3, 72 h, 3 days incubation, CyQUANT fluorescence detection, read-out: OVCAR-3_IC50_nM. The protocol: OVCAR3 cells were purchased from Nanjing Cobioer Biosciences Co., Ltd. RPMI-1640 medium, fetal bovine serum, and the CyQUANT Direct Cell Proliferation Assay kit were purchased from Thermo Fisher Scientific, USA; 96-well cell culture plates were sourced from Corning, USA.
Culture OVCAR3 cells with RPMI-1640 medium containing 10% fetal bovine serum and incubate them in a 5% CO2 incubator at 37° C. Only cells in the logarithmic growth phase can be used for the test.
Inoculate OVCAR3 cells into a 96-well cell culture plate at 90 μL per well and incubate overnight in a 5% CO2 incubator at 37° C. Dissolve the compound powder in DMSO to prepare a stock solution of 10 mM. Then perform gradient dilution for the compounds in the microplate to achieve a final concentration of 0-10 μM. Add 10 μL of cell culture medium containing compounds to each well to make the final DMSO content 0.2%. Incubate the cell plates in a 5% CO2 incubator at 37° C. for 3 days. Add 100 μL of CyQUANT detection reagent to each well, react at 37° C. for 60 min, and perform fluorescence detection using the PerkinElmer Envision.

The target in test [3] is T1, Human KIF18A (amino acid sequence 1-417) (Homo sapiens, UniProt Q8NI77).
T1 construct: purchased Viva Biotech (Shanghai) Ltd
T1 sequence (Q8NI77 1-417): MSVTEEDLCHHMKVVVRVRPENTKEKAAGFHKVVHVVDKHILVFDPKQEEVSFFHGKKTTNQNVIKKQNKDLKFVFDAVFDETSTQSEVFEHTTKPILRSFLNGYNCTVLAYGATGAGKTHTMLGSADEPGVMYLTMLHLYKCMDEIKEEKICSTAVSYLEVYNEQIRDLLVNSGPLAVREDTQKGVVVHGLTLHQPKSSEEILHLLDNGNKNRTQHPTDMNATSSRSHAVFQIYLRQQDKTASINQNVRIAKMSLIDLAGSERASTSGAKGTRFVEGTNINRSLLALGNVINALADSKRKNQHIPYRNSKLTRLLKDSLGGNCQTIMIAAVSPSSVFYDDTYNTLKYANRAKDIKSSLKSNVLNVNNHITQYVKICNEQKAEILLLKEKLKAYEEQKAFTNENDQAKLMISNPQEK
The test can be described thus: Enzymatic activity test (ADP-Glo, microtubule-stimulated KIF18A ATPase). The test is classed as biochemical. As to conditions: 60 μg/mL microtubules, 25 μM ATP, 2.5 nM KIF18A protein, 120 min at ambient temperature, read-out: KIF18A_nM. On the procedure:
Human KIF18A (amino acid sequence 1-417) was purchased from Viva Biotech (Shanghai) Ltd.; the ADP-Glo™ protein kinase kit was acquired from Promega, USA; tubulin was sourced from Cytoskeleton, USA; and the 384-well assay plate and Envision multifunctional microplate reader were obtained from PerkinElmer, USA.
Dissolve the compound powder in DMSO to prepare a stock solution of 10 mM. Then perform gradient dilution for the compounds in the microplate to achieve a final concentration of 0-10 μM. Then, add 2.5 μL each of tubulin, compound, ATP, and KIF18A protein to the microplate in sequence for reaction at ambient temperature for 120 min. The final concentrations in the enzyme reaction are 60 μg/mL for microtubules, 25 μM for ATP, and 2.5 nM for KIF18A protein. After the enzyme reaction, add 10 μL of ADP-GLO reaction reagent to each well and incubate at ambient temperature for 30 min. After that, add 20 μL of detection reagent to each well and incubate at ambient temperature for 30 min in the dark. Finally, perform chemiluminescence detection using the PerkinElmer Envision.

The structures appear in SMILES notation. Bounds are passed on as bounds.

With `O=C(Nc1nc2c(c(N3CCC(F)(F)CC3)n1)COC2)c1ccc(NS(=O)(=O)CCO)cc1N1CCC2(CC1)CC2` [Example 4, N-(4-(4,4-difluoropiperidin-1-yl)-5,7-dihydrofuro[3,4-d]pyrimidin-2-yl)-4-(2-hydroxyethylsulfonamido)-2-(6-azaspiro[2.5]octan-6-yl)benzamide], the results for the IC50 in test [1], in test [2] and in test [3] were 2020 nM, 1350 nM and 29 nM, respectively.

Consider `O=C(Nc1cc2c(c(N3CCC(F)(F)CC3)n1)COC2)c1ccc(NS(=O)(=O)CCO)cc1N1CCC2(CC1)CC2` [Example 5, N-(4-(4,4-difluoropiperidin-1-yl)-1,3-dihydrofuro[3,4-c]pyridin-6-yl)-4-(2-hydroxyethylsulfonamido)-2-(6-azaspiro[2.5]octan-6-yl)benzamide], for which the IC50 in test [1] was 7 nM; in test [2], 6 nM; in test [3], 28 nM.

As for `O=C(Nc1nc2c(c(N3CCC(F)(F)CC3)n1)CNC2)c1ccc(NS(=O)(=O)CCO)cc1N1CCC2(CC1)CC2` [Example 7, N-(4-(4,4-difluoropiperidin-1-yl)-6,7-dihydro-5H-pyrrolo[3,4-d]pyrimidin-2-yl)-4-(2-hydroxyethylsulfonamido)-2-(6-azaspiro[2.5]octan-6-yl)benzamide], the IC50 in test [1] was over 10000 nM; in test [2], over 10000 nM; in test [3] it was 100 nM.

With `CN1Cc2nc(NC(=O)c3ccc(NS(=O)(=O)CCO)cc3N3CCC4(CC3)CC4)nc(N3CCC(F)(F)CC3)c2C1` [Example 8, N-(4-(4,4-difluoropiperidin-1-yl)-6-methyl-6,7-dihydro-5H-pyrrolo[3,4-d]pyrimidin-2-yl)-4-(2-hydroxyethylsulfonamido)-2-(6-azaspiro[2.5]octan-6-yl)benzamide], the values for the IC50 in test [1], in test [2] and in test [3] were over 3000 nM, over 3000 nM and 280 nM, respectively.

`CC1OCc2c1cc(NC(=O)c1ccc(NS(=O)(=O)CCO)cc1N1CCC3(CC1)CC3)nc2N1CCC(F)(F)CC1` (stereo not shown) [Example 9, N-(4-(4,4-difluoropiperidin-1-yl)-1-methyl-1,3-dihydrofuro[3,4-c]pyridin-6-yl)-4-((2-hydroxyethyl)sulfonamido)-2-(6-azaspiro[2.5]octan-6-yl)benzamide]: the IC50 in test [1] stood at 37 nM; in test [2] it was 55 nM; in test [3], 49 nM.

Regarding `CCC1(C)OCc2c1cc(NC(=O)c1ccc(NS(=O)(=O)CCO)cc1N1CCC3(CC1)CC3)nc2N1CCC(F)(F)CC1` (stereo not shown) [Example 10, N-(4-(4,4-difluoropiperidin-1-yl)-1-ethyl-1-methyl-1,3-dihydrofuro[3,4-c]pyridin-6-yl)-4-(2-hydroxyethylsulfonamido)-2-(6-azaspiro[2.5]octan-6-yl)benzamide], the values for the IC50 in test [1], in test [2] and in test [3] were 1270 nM, 614 nM and 2750 nM, respectively.

Regarding `O=C(Nc1cn2cccc2c(N2CCC(F)(F)CC2)n1)c1ccc(NS(=O)(=O)CCO)cc1N1CCC2(CC1)CC2` [Example 11, N-(1-(4,4-difluoropiperidin-1-yl)pyrrolo[1,2-a]pyrazin-3-yl)-4-(2-hydroxyethylsulfonamido)-2-(6-azaspiro[2.5]octan-6-yl)benzamide], the IC50 turned out to be 28 nM in test [1], 28 nM in test [2] and 191 nM in test [3].

On to `Cc1ncc2c(N3CCC(F)(F)CC3)nc(NC(=O)c3ccc(NS(=O)(=O)CCO)cc3N3CCC4(CC3)CC4)cn12` [Example 12, N-(8-(4,4-difluoropiperidin-1-yl)-3-methylimidazo[1,5-a]pyrazin-6-yl)-4-(2-hydroxyethylsulfonamido)-2-(6-azaspiro[2.5]octan-6-yl)benzamide], for which the IC50 in test [1] is 102 nM; in test [2] it was 80 nM; in test [3], 80 nM.

In the case of `O=C(Nc1cn2ccnc2c(N2CCC(F)(F)CC2)n1)c1ccc(NS(=O)(=O)CCO)cc1N1CCC2(CC1)CC2` [Example 13, N-(8-(4,4-difluoropiperidin-1-yl)imidazolo[1,2-a]pyrazin-6-yl)-4-((2-hydroxyethyl)sulfonamide)-2-(6-azaspiro[2.5]octan-6-yl)benzamide], the IC50 was determined as 13 nM in test [1], 9 nM in test [2] and 27 nM in test [3].

For `O=C(Nc1cc(N2CCC(F)(F)CC2)c2nccn2c1)c1ccc(NS(=O)(=O)CCO)cc1N1CCC2(CC1)CC2` [Example 14, N-(8-(4,4-difluoropiperidin-1-yl)imidazo[1,2-a]pyridin-6-yl)-4-((2-hydroxyethyl)sulfonamido)-2-(6-azaspiro[2.5]oct-6-yl)benzamide], the IC50 came to 17 nM in test [1], 9 nM in test [2] and 32 nM in test [3].

Regarding `Cc1nc2c(N3CCC(F)(F)CC3)nc(NC(=O)c3ccc(NS(=O)(=O)CCO)cc3N3CCC4(CC3)CC4)cn2c1C` [Example 15], the IC50 was 97 nM in test [1], 71 nM in test [2] and 205 nM in test [3].

Regarding `O=C(Nc1cn2ncnc2c(N2CCC(F)(F)CC2)n1)c1ccc(NS(=O)(=O)CCO)cc1N1CCC2(CC1)CC2` [Example 16], the results for the IC50 in test [1], in test [2] and in test [3] were 56 nM, 33 nM and 29 nM, respectively.

Take `O=C(Nc1cn2nccc2c(N2CCC(F)(F)CC2)n1)c1ccc(NS(=O)(=O)CCO)cc1N1CCC2(CC1)CC2` [Example 17]: the values for the IC50 in test [1], in test [2] and in test [3] were 30 nM, 20 nM and 28 nM, respectively.

`O=C(Nc1cc(N2CCC(F)(F)CC2)c2ncnn2c1)c1ccc(NS(=O)(=O)CCO)cc1N1CCC2(CC1)CC2` [Example 18]: the IC50 in test [1] came out at 35 nM; in test [2], 16 nM; in test [3], 12 nM.

With `O=C(Nc1cn2cnnc2c(N2CCC(F)(F)CC2)n1)c1ccc(NS(=O)(=O)CCO)cc1N1CCC2(CC1)CC2` [Example 19, N-(8-(4,4-difluoropiperidin-1-yl)-[1,2,4]triazolo[4,3-a]pyrazin-6-yl)-4-((2-hydroxyethyl)sulfonamido)-2-(6-azaspiro[2.5]oct-6-yl)benzamide], the results for the IC50 in test [1], in test [2] and in test [3] were 28 nM, 18 nM and 13 nM, respectively.

Turning to `O=C(Nc1cc2cccn2c(N2CCC(F)(F)CC2)n1)c1ccc(NS(=O)(=O)CCO)cc1N1CCC2(CC1)CC2` [Example 20, N-(1-(4,4-difluoropiperidin-1-yl)pyrrolo[1,2-c]pyrimidin-3-yl)-4-(2-hydroxyethylsulfonamido)-2-(6-azaspiro[2.5]octan-6-yl)benzamide], the IC50 in test [1] was 23 nM; in test [2], 18 nM.

For the compound `Cn1ccc2c(N3CCC(F)(F)CC3)nc(NC(=O)c3ccc(NS(=O)(=O)CCO)cc3N3CCC4(CC3)CC4)cc21` [Example 38], the results for the IC50 in test [1] and in test [3] were 126 nM and 131 nM, respectively.

The values above are taken from US20260159500A1, “KINESIN KIF18A INHIBITOR AND USE THEREOF” (SHANGHAI APEIRON THERAPEUTICS COMPANY LIMITED, priority 2022, published 2026).
